Measurements: PubChem BioAssay AID248 (DTP/NCI, 2004)
Where “and” joins values, the source holds several entries; their conditions need not be identical. Identical values can stand only once. Inconclusive results and toxic doses are left out. Cut-off read from the data, not from the text of the source: active = T/C of 150% or more; inactive = T/C below 125%.

System: L1210 leukemia ip in BDF1 mice, survival T/C
Experiment: NCI In Vivo Anticancer Drug Screen. Data for tumor model L1210 Leukemia (intraperitoneal) in B6D2F1 (BDF1) mice
Details: endpoint: mean survival time, higher = longer survival
Method in brief: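 In this screen, tumor-bearing mice given compound are compared to those given vehicle, and their survival values are reported as a treated-to-control quotient.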

Measured: T/C

CCNCCCNCC
inactive: dose: 75.0 mg/kg/injection, schedule: Q01DX001 (ip), vehicle: saline 100 % of control | dose: 150.0 mg/kg/injection, schedule: Q01DX001 (ip), vehicle: saline 93 % of control

CC(=O)NCCCC1CCCCC1CN (configuration not stated)
inactive: dose: 100.0 mg/kg/injection, schedule: Q04DX003 (ip), vehicle: saline 104 % of control | dose: 200.0 mg/kg/injection, schedule: Q04DX003 (ip), vehicle: saline 114 % of control | dose: 400.0 mg/kg/injection, schedule: Q04DX003 (ip), vehicle: saline 114 % of control

CN(C)C=NCCNc1ccc([N+](=O)[O-])cn1
inactive: dose: 50.0 mg/kg/injection, schedule: Q01DX009 (ip), vehicle: saline with Tween-80 100 % of control | dose: 100.0 mg/kg/injection, schedule: Q01DX001 (ip), vehicle: saline with Tween-80 98 % of control | dose: 100.0 mg/kg/injection, schedule: Q01DX009 (ip), vehicle: saline with Tween-80 100 % of control | dose: 200.0 mg/kg/injection, schedule: Q01DX001 (ip), vehicle: saline with Tween-80 95 % of control

O=C(c1cc(C(F)(F)F)cc(C(F)(F)F)c1)N1CC1
inactive: dose: 6.25 mg/kg/injection, schedule: Q01DX009 (ip), vehicle: water 96 % of control | dose: 12.5 mg/kg/injection, schedule: Q01DX009 (ip), vehicle: water 91 % of control | dose: 25.0 mg/kg/injection, schedule: Q01DX009 (ip), vehicle: water 95 % of control | dose: 50.0 mg/kg/injection, schedule: Q01DX009 (ip), vehicle: water 93 % of control and 86 % of control | dose: 100.0 mg/kg/injection, schedule: Q01DX009 (ip), vehicle: water 88 % of control | dose: 200.0 mg/kg/injection, schedule: Q01DX009 (ip), vehicle: water 95 % of control and 89 % of control | dose: 400.0 mg/kg/injection, schedule: Q01DX009 (ip), vehicle: water 86 % of control

CN(C)N=Nc1ccc(CCC(=O)NN)cc1
inactive: dose: 20.0 mg/kg/injection, schedule: Q01DX Z (ip), vehicle: saline 111 % of control | dose: 30.0 mg/kg/injection, schedule: Q01DX Z (ip), vehicle: saline 114 % of control | dose: 67.0 mg/kg/injection, schedule: Q01DX Z (ip), vehicle: saline 91 % of control

C#CCCCCCl
inactive: dose: 100.0 mg/kg/injection, schedule: Q01DX001 (ip), vehicle: other 103 % of control | dose: 200.0 mg/kg/injection, schedule: Q01DX001 (ip), vehicle: other 104 % of control | dose: 400.0 mg/kg/injection, schedule: Q01DX001 (ip), vehicle: other 108 % of control
